# Reference: patent US5041441A, “Method of chemotherapy using 1-phenyl-2-decanoylamino-3-morpholino-1-propanol” (The Regents of the University of Michigan, priority 1988, dated 1991)
# Experiment: Toxicity test in normal, noncancerous mice
# Assay type: in vivo
# Procedure: Ten normal, noncancerous mice were injected with D-threo-PDMP daily for 10 days, then killed 5 hours later with the results set forth in Table 4.
# The preceding experiment was repeated in order to observe less evancescent responses: the mice were killed 40 hours after the last injection following 12 daily injections. Here, of the absolute weights, only the kidneys were statistically different in treated mice, 11% smaller (p less than 0.05%). Comparing the 40 hour and 5 hour experiments it seems likely that the liver weights renormalized faster than the kidneys, perhaps a reflection of faster glucolipid turnover.
# This failure to harm the bone marrow and related systems compares favorably with the high toxicity of many antineoplastics.
# [1] = 100 mg/kg/day, 10 injections, killed 5 hours later
structure (smiles),measurement,setting,value
"CCCCCCCCCC(=O)N[C@H](CN1CCOCC1)[C@H](O)c1ccccc1 [D-threo-PDMP, 1-Phenyl-2-Decanoylamino-3-Morpholino-1-Propanol]",Average body weight gain of treated mice,"100 mg/kg/day, 10 injections, controls gained 4.5 g",2.1 g
same,Body weight smaller than controls,[1],8%
same,Brain Weight,[1],0.444 g
same,Brain Weight (% of body),[1],1.67 % of body
same,Kidney Weight,[1],0.329 g
same,Kidney Weight (% of body),[1],1.24 % of body
same,Kidney weight smaller than controls,[1],17%
same,Liver Weight,[1],1.32 g
same,Liver Weight (% of body),[1],4.97 % of body
same,Liver weight smaller than controls,[1],18%
same,Spleen Weight,[1],0.095 g
same,Spleen Weight (% of body),[1],0.36 % of body
same,Spleen size compared with controls,[1],slightly but not significantly smaller
same,Body Weight,"100 mg/kg/day, 10 injections, killed 5 hours later, initial mean 24.4 g",26.5 g
same,Brain weight smaller than controls,"100 mg/kg/day, 10 injections, killed 5 hours later, p less than 0.025",4.6%
same,"Cell counts on orbital blood (RBC, WBC, differential monocytes, lymphocytes, eosinophiles, neutrophils)",12 daily injections,no abnormalities
same,Kidney weight (absolute) smaller than controls,"12 daily injections, killed 40 hours after the last injection",11%
